Test results from patent publication US11078236B2, “Selenium-based therapies” (Burke Neurological Institute, priority 2017, dated 2021).
Entries after “also recorded” stand apart in the source; their conditions may differ. Starred links: 1 amine or outer side, 2 acyl side, 3 side chain; linkers in the order of their positions; H or OH if unused. Positions of bridges follow the written chain, without caps; N, C: chain ends. Non-standard residues stand in square brackets, D forms with d. Residues, ends and D or L forms follow the SMILES beside them. Chains are numbered I, II in the order given. Actinocin(9to1) = Cc1c2oc3c(C)ccc(C(=O)[*:1])c3nc-2c(C(=O)[*:2])c(N)c1=O; NMeV = CN[C@H](C(=O)O)C(C)C; Sec = N[C@@H](C[SeH])C(=O)O; Sar = CNCC(=O)O

How the values were obtained:
[1] = system: GPX4 and other selenoprotein genes; test: Quantitative PCR of antioxidant/selenoprotein genes in neurons; assay type: cell-based, mice or rats
Description: (§1) Total RNA was prepared using the NucleoSpin RNA II kit (MACHEREYNAGEL) according to the manufacturer's protocol. Duplex real-time PCR reactions were performed with gene expression assays using 6-carboxyfluorescein-labeled probes (Applied Biosystems) for antioxidant enzymes. All expression levels were normalized to β-actin gene expression levels, which were determined with a VIC-labeled probe (Applied Biosystems). All experiments were performed using a Quant 6 Real-Time PCR System (Applied Biosystems).
(§2) Primary cortical neurons were obtained from either embryonic (E15) CD1 mice or embryonic (E17) Sprague-Dawley rats. Briefly, cortices were dissected, homogenized, and plated in minimum essential medium containing 10% fetal bovine serum (FBS), 5% horse serum, and 1% penicillin/streptomycin in 96-well plates, 6-well plates, or 10-cm dishes. Neurons were maintained at 37° C. with 5% CO2. All experiments were started at 24 hours after plating.

GPX4-deficient neurons = test: Survival of neurons with siRNA knockdown of GPX4; assay type: cell-based, mice or rats; settings: 50 μM NAC, siGPX4
Text: Knock down of GPX4 was achieved by using lipofectamine RNAimax (Thermo-Fisher) to transfect primary cortical neurons with specific siRNA against GPX4. Three different sequences of siRNA were used separately to validate target specificity as opposed to sequence specificity. Knockdown was validated by mRNA and protein.

primary cortical neurons [2] = test: In vitro ICH model: hemin-induced ferroptosis, MTT survival and Live/Dead assay; assay type: cell-based, mice or rats; settings: for toxicity / therapeutic window in cultured neurons: in vitro, increasing concentrations
Description: as §2
Cell death was induced in primary cortical neurons and hippocampal HT22 cells by treatment with hemin ([…]; Sigma). For the neuroprotection studies, cells were treated with 80 μM hemin in the presence of sodium selenite (Sigma) diluted in water. Cell viability was analyzed 16 hours after treatment. Cells were rinsed with warm phosphate-buffered saline (PBS) and assessed by MTT assay. The fidelity of MTT assays in measuring viability was verified by calcein-AM/ethidium homodimer-1 staining (Live/Dead assay, Molecular Probes) following the manufacturer's instructions.

[3] = system: GPX4 and selenoprotein mRNA in striatum; assay type: in vivo, mouse; settings: ICV injection
Description: FIG. 5A is a schematic showing ICV injection of dose dependent Se (1-5 μM) and collection of striatum 6 hours later to extract RNA for quantitative PCR.
Male C57BL/6 mice (8 to 10 weeks of age; Charles River) were anesthetized with isoflurane (2 to 5%) and placed on a stereotaxic frame. During the procedure, the animal's body temperature was maintained at 37° C. with a homeothermic blanket. With a nanomite syringe pump (Harvard Apparatus) and a Hamilton syringe, […] of collagenase (0.075 IU; Sigma) was infused into the right striatum at a flow rate of 0.120 ml/min. Relative to the bregma point, the stereotaxic coordinates of the injection were as follows: lateral, −0.20; anteroposterior, 0.62; and dorsoventral, −0.40. In control animals, […] of saline was infused. The treatment group received sodium selenite (1-5 μM) 2 hours after collagenase infusion directly into the ventricals. The control groups received vehicle (saline) alone. The animals were randomized to sham or ICH groups. The identity of the mice that received vehicle or Se was masked to surgeons who performed the ICH. […]
Total RNA was prepared using the NucleoSpin RNA II kit (MACHEREYNAGEL) according to the manufacturer's protocol. […] All expression levels were normalized to β-actin gene expression levels, which were determined with a VIC-labeled probe (Applied Biosystems). […]

[4] = ICP-MS measurement of selenium levels; set-up: species or system mouse; settings: in vitro and in vivo after Se treatment
Description: FIG. 2M is a graph showing inductively coupled mass spectrometry (ICP-MS) measurement of selenium levels normalized to protein concentration in cortical neurons treated with 80 μM hemin and/or Se.
FIG. 5D is a graph showing inductively coupled mass spectrometry (ICP-MS) measurement of selenium levels normalized to protein concentration following ICH and ICH+2.5 μM Se in striatum at 24 h post treatment (n=8).

primary cortical neurons [5] = test: Oxidative stress-induced neuronal death: HCA-induced ferroptosis, MTT survival; assay type: cell-based, mice or rats; settings: HCA 5 mM, survival at 24 h
Description: as §2
Primary cortical neurons and HT22 cells were exposed to 5 mM HCA (glutamate structural analog) to induce oxidative stress-induced cell death, and sodium selenite (Sigma) was applied in media. 24 hours after treatment with HCA, the cells were rinsed with warm PBS, and cell viability was assessed by MTT assay (Life Technologies) and calcein-AM/ethidium homodimer-1 staining (Live/Dead assay, Molecular Probes).

[6] = system: collagenase mouse model of ICH; test: Collagenase-induced mouse model of ICH: behavior, fluorojade, immunofluorescence; assay type: in vivo
Description: Male C57BL/6 mice (8 to 10 weeks of age; Charles River) were anesthetized with isoflurane (2 to 5%) and placed on a stereotaxic frame. During the procedure, the animal's body temperature was maintained at 37° C. with a homeothermic blanket. With a nanomite syringe pump (Harvard Apparatus) and a Hamilton syringe, […] of collagenase (0.075 IU; Sigma) was infused into the right striatum at a flow rate of 0.120 ml/min. Relative to the bregma point, the stereotaxic coordinates of the injection were as follows: lateral, −0.20; anteroposterior, 0.62; and dorsoventral, −0.40. In control animals, […] of saline was infused. […] The control groups received vehicle (saline) alone. The animals were randomized to sham or ICH groups. The identity of the mice that received vehicle or Se was masked to surgeons who performed the ICH. […] Proper postoperative care was taken until the animals recovered completely.
The corner task assessed the integrated sensorimotor function in both stimulation of vibrissae (sensory neglect) and rearing (motor response) (See Schallert et al., Neuropharmacology 39(5): p. 777-87 (2000)). Mice were placed between two cardboard pieces forming a corner with a 30° angle. While maintaining the 30° angle, the boards were gradually moved toward the mouse until the mouse approached the corner, reared upward, and turned 180° to face the open end. The direction (left or right) in which the mouse turned around was recorded for each trial. Ten trials were performed for each mouse. The adhesive tape removal task in mice was performed as previously described. Briefly, adhesive tape was placed on the planter region of the forward paw (right and left) of mice. The time from which the tape was applied to when the mouse successfully removed it was recorded for each paw. A maximum of 300 s for each paw was allowed.
For immunocytochemical experiments in the brain, three control mice with induced unilateral stroke and three selenium-treated mice with induced unilateral stroke were perfusion fixed with 4% PFA in PBS for 15 min. The brains were isolated and postfixed for 1 h in 4% PFA. After cryoprotection in a sucrose gradient, brain sections were cut at 30 μm.
Free-floating brain sections were blocked for 1 h in a PBS solution containing 3% bovine serum (Sigma), and 0.5% Triton X-100 (Biorad). Primary antibodies were diluted in the same solution and applied for 12 h, followed by incubation for 1 h with the appropriate secondary antibody, conjugated to Alexa 488 (1:1000; green fluorescence, Molecular Probes) or Alexa 568 (1:1000; red fluorescence, Molecular Probes). For nuclear labeling, ToPro was added to the mixture (1:15000, far red fluorescence, Invitrogen, T3605). […]

GPX4 mRNA = GPX4 mRNA in organs after intraperitoneal injection of peptides; assay type: in vivo, mouse; settings: 12 μg/g intraperitoneal, 24 h
Description: FIG. 69B quantifies GPX4 mRNA levels 24 h following IP injection of SelPep (4-12 μg/g; n=3) in the striatum, cortex, heart or liver.
as §1

[7] = 12 μg/g IP from 2 h post-ICH, daily for 7 days, from day 3, significant by day 14

CC(=O)N[C@@H](CS)C(=O)O [NAC, N-acetylcysteine]
effect on GPX4 expression ([1]; 50 μM NAC): no effect on GPX4 mRNA levels; also recorded: without affecting GPX4 expression
survival of GPX4-deficient neurons (GPX4-deficient neurons): prevents cell death due to GPX4 molecular depletion; also recorded: protected GPX4-deficient neurons; also recorded: prevents cell death due to GPX4 knockdown

O=[Se](O)O [Se, Sodium selenite]
toxicity / therapeutic window in cultured neurons (primary cortical neurons [2]): parabolic dose response with a narrow therapeutic window
toxicity or death in mice ([3]; any concentration (1-5 μM)): no toxicity or death
optimal Se concentration for inducing selenoprotein expression ([3]; uninjured mice, striatum 6 h later): 2.5 µM
selenium levels by ICP-MS [4]: significant increases in cellular selenium

CC(C)C[C@H](NC(=O)[C@H](CC(N)=O)NC(=O)[C@H](C[SeH])NC(=O)[C@H](CCCCN)NC(=O)[C@H](C[SeH])NC(=O)[C@H](CCCCN)NC(=O)[C@H](CCCNC(=N)N)NC(=O)[C@H](CCCNC(=N)N)NC(=O)[C@H](CCCNC(=N)N)NC(=O)[C@H](CCC(N)=O)NC(=O)[C@H](CCCNC(=N)N)NC(=O)[C@H](CCCNC(=N)N)NC(=O)[C@H](CCCCN)NC(=O)[C@H](CCCCN)NC(=O)[C@H](CCCNC(=N)N)NC(=O)CNC(=O)[C@@H](N)Cc1ccc(O)cc1)C(=O)N[C@@H](CC(N)=O)C(N)=O [Tat-SelPep] (H-YGRKKRRQRRRK[Sec]K[Sec]NLN-NH2)
single cell analysis of cell viability and death (live/dead) (primary cortical neurons [2]; hemin 80 μM, 16 h, 1 μM peptide): prevented hemin induced ferroptosis and completely preserved cell bodies and neurites of neurons
protection from hemin-induced ferroptosis (primary cortical neurons [2]; hemin 80 μM, survival at 16 h, MTT): concentration dependent protection
toxicity / therapeutic window in cultured neurons (primary cortical neurons [2]): wide therapeutic window with no apparent toxicity
protection from HCA-induced ferroptosis (primary cortical neurons [5]): concentration dependent protection
GPX4, SeIP, TXNRD1, GPX3 and SelK mRNA ([1]; 1 μM peptide, 6 h post-treatment): induced significant increases
cell death measured by Fluoro-Jade staining ([6]; 12 μg/g IP from 2 h post-ICH, daily for 7 days): reduced cell death
sensory neglect task [6, 7]: improved
spatial neglect task [6, 7]: improved
behavior outcomes in animals overexpressing mSp1 ([6]; AAV8-mSp1 in striatum, 12 μg/g IP, day 14 post-stroke): fail to demonstrate significant behavior improvements
GPX4 expression in heart, liver, striatum and cortex (GPX4 mRNA): induced significant expression of GPX4

Cc1c2oc3c(C)ccc(C(=O)N[C@@H]4C(=O)N[C@H](C(C)C)C(=O)N5CCC[C@H]5C(=O)N(C)CC(=O)N(C)[C@@H](C(C)C)C(=O)O[C@@H]4C)c3nc-2c(C(=O)N[C@@H]2C(=O)N[C@H](C(C)C)C(=O)N3CCC[C@H]3C(=O)N(C)CC(=O)N(C)[C@@H](C(C)C)C(=O)O[C@@H]2C)c(N)c1=O [actinomycin-D] (I: T[dV]P[Sar][NMeV] / II: T[dV]P[Sar][NMeV]; ester I:1-I:C, II:1-II:C; linker I:N-II:N via Actinocin(9to1))
protection against hemin toxicity induced by Se (primary cortical neurons [2]; co-treatment with transcription inhibitor, MTT): abrogated protection; also recorded: abolished protection against hemin toxicity
Se-dependent increase in GPX4 mRNA ([1]; co-treatment with transcription inhibitor): inhibited Se-dependent increase in GPX4 mRNA
